Patent publication US12390483B2, “Compounds and methods for treating neurological and cardiovascular conditions” (Astrocyte Pharmaceuticals, Inc., priority 2016, dated 2025)

Assays:
A3 receptor = target: T1, A3 receptor (Mus musculus, UniProt Q61618); test: Affinity at the A3 receptor in the mouse as stated in the discussion; format: binding
T1 sequence (Q61618 1-319): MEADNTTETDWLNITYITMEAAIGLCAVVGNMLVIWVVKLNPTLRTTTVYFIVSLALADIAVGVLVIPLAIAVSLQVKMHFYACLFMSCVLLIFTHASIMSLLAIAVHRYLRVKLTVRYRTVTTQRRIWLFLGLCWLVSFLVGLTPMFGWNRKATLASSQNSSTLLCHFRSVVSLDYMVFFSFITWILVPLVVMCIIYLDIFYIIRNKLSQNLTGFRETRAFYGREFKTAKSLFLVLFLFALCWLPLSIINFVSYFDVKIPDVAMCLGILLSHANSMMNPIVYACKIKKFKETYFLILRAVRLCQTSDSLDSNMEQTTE

[1] = Pharmacokinetics of MRS4322 following intraperitoneal administration of MRS2365 to mice; format: in vivo; details: for Plasma Concentration by Subject / Plasma Concentration Mean / Brain Concentration by Subject / Brain Concentration Mean: MRS4322 in mice after MRS2365 0.24 mg/kg i.p.; for Plasma Concentration by Subject / Brain Concentration by Subject: subjects A-C; for Plasma Concentration by Subject / Plasma Concentration Mean: BLQ = below 2.26 ng/mL; for Brain Concentration by Subject / Brain Concentration Mean: BLQ = below 9.40 ng/g
Method: Animals: Female C576BL/6J mice weighing approximately 0.02 Kg were used for this study, supplied by the University of Texas Health Sciences Center (San Antonio, TX). All studies were conducted under approved University of Texas Health Sciences Center IACUC protocols.
Drug Administration: MRS2365 was solubilized in phosphate-buffered saline and then diluted in phosphate-buffered saline to prepare dosing solution. Final dosing solution concentration of MRS2365 was 100 μM. A 100 μL volume of dosing solution was administered intraperitoneally to each mouse per 20 gram body weight; MRS2365 was administered intraperitoneally at 0.5 μmol/kg or 0.24 mg/kg. Three mice were administered MRS2365 for each sampling timepoint.
Tissue Sampling: Blood and brain samples were obtained at 0, 0.083, 0.25, 0.5, 1, 2 and 8 hours post-dose. At each timepoint, mice (3/timepoint) were euthanized in a […] chamber. Whole blood was obtained by cardiac puncture into Microtainer tubes containing heparin and immediately centrifuged for preparation of plasma; plasma was stored at −80° C. At each timepoint, whole brain samples were obtained by decapitation, rinsed in ice-cold phosphate-buffered saline and weighed. Brain samples were then immediately flash-frozen in liquid nitrogen and stored at −80° C.
The following table outlines the LC and MS/MS conditions employed:
The calibration range for the MRS4322 plasma concentration standard curve was 2.26-241 ng/mL. The calibration range for MRS4322 brain concentrations was 2.35-242 ng/mL.
For bioanalysis of brain concentrations of MRS4322, brain samples were homogenized in ice-cold phosphate-buffered saline in a 4× dilution. Aliquots of the resulting diluted brain homogenate were treated with acetonitrile and analyzed by LC-MS/MS. Because of the 4× homogenate dilution, the calibration range of the MRS4322 brain standard curve was translated to 9.40-968 ng/gm. In several samples, MRS4322 were detectable but fell below the brain LLOQ of 9.40 ng/gm but were above background; in these cases the final reported brain concentration was extrapolated based on MS peak heights.

[2] = In vitro stability and metabolite scouting of MRS2365 in human whole blood; format: in vitro ADME; details: 100 μM in human whole blood, lithium heparin as anti-coagulant
Method: (§1) Whole blood was obtained from male CD-1 mice and human volunteers at Seventh Wave Laboratories (Maryland Heights, MO). Plasma and blood samples were prepared using either EDTA (1 mM) or lithium heparin as anticoagulants.
Blood sample aliquots were obtained at 0, 1, 2.5, 7.5, 10 and 30 minutes and placed in microtainer tubes. For metabolite scouting analyses, MRS2365 was incubated in heparinized human whole blood at a concentration of 100 μM for 10 or 30 minutes (FIG. 10). In all studies, plasma was immediately prepared by centrifugation at 4° C., placed in microtainer tubes, frozen on dry ice and stored at −80° C. until analysis. […]
(§2) Plasma and blood samples were also qualitatively analyzed for MRS2365 metabolites utilizing a LC-MS/MS-based “metabolite scouting” protocol. […] Blood and plasma samples were analyzed by both positive- and negative-ion LC/MS-MS for parent compound and metabolites as it was anticipated that the phosphorylated compounds would preferentially generate negative ions while the riboside MRS4322 would preferentially generate positive ions. In positive-ion mode, extracted ion chromatograms monitored masses in the range of 323.7-324.7 and 403.7-404.7 to scout for MRS4322 and MRS2347, respectively. Any ion peaks in these ranges were further analyzed to generate product ion spectra for these ion chromatogram peaks. […]

[3] = In vitro stability and metabolite scouting of MRS2365 in human plasma; format: in vitro ADME
Method: as §1
Plasma Stability Determination: MRS2365, enalapril and procaine were solubilized in phosphate-buffered saline, pH 7.4. […] Stability incubations were initiated with the addition of MRS2365 (1 μM final concentration). Initial assessments of stability in EDTA-generated plasma utilized incubation timepoints of 0, 10, 30, 60, 120 and 240 minutes (FIGS. 3 and 4). […]
as §2

[4] = Previous in vivo pharmacokinetic assessments of MRS2365 in mice; details: heparin as blood anticoagulant for plasma preparation, initial assessments

SMILES: CSc1nc(N)c2ncn([C@H]3[C@H](O)[C@H](O)[C@]4(CO)C[C@H]34)c2n1 [MRS4322]
- difference in affinity between MRS4322 and Cl-IB-MECA (A3 receptor): approximately 25,000 fold
- Plasma Concentration by Subject ([1]; 0 h): BLQ
- Plasma Concentration Mean ([1]; 0 h): BLQ
- Brain Concentration by Subject ([1]; 0.083 h): BLQ
- Brain Concentration Mean ([1]; 0.083 h): BLQ
- Brain Concentration by Subject ([1]; 1 h): BLQ
- Brain Concentration Mean ([1]; 1 h): BLQ
- Brain Concentration by Subject ([1]; 2 h): BLQ
- Brain Concentration Mean ([1]; 2 h): BLQ
- Plasma Concentration by Subject ([1]; 8 h): BLQ
- Brain Concentration by Subject ([1]; 8 h): BLQ
- Plasma Concentration Mean ([1]; 8 h): BLQ
- Brain Concentration Mean ([1]; 8 h): BLQ

SMILES: CSc1nc(N)c2ncn([C@H]3[C@H](O)[C@H](O)[C@]4(COP(=O)(O)OP(=O)(O)O)C[C@H]34)c2n1 [MRS2365]
- metabolites observed (M2 = MRS2347, M1 = MRS4322) [2]: Two metabolites
- metabolites observed (M2 = MRS2347, M1 = MRS4322) ([3]; 100 μM in human plasma, lithium heparin as anti-coagulant): Two metabolites
- MRS2365 concentrations during incubation ([3]; heparin-treated human plasma, 0-90 seconds, even at 0 and 5 seconds): extremely low
- metabolic fate following intraperitoneal administration to mice ([1]; MRS2365 0.5 μmol/kg i.p., mice): rapidly and completely metabolized to MRS4322
- in vivo clearance [4]: rapidly cleared at a rate approximating cardiac output
